Data: patent publication US20200208112A1, “Method of Selecting Genetically Modified Hematopoietic Stem Cells” (priority 2017, published 2020)

Tests used:
NIH3T3 cells = assay: Puromycin selection and ganciclovir sensitivity of LTGCPU7-transduced NIH3T3 cells; type: cell-based
Procedure: a. NIH3T3 cells were mock-transduced (NT) or transduced with LTGCPU7, and LTGCPU7-transduced cells were selected with puromycin. Equivalent numbers of mock- and LTGCPU7-transduced/selected cells were treated with GCV at the indicated concentration. Living cells were counted three days later.
(§1) (Beckman Coulter). Where indicated, purification was performed with a Mustang Q anion exchange membrane cartridge (Pall Corporation), as previously described (Kutner et al., Nature protocols, 2009, 4, 495-505) and a 40K ZebaSpin desalting column (ThermoFisher Scientific), according to the manufacturer's instructions, with concentration by ultracentrifugation. Infectious titers were determined by qPCR, as previously described (Payen, E. et al., Methods in enzymology, 2012, 507, 109-124). When indicated, transduced NIH3T3 cells were selected on puromycin and treated with various concentrations of ganciclovir (Cymevan, Roche). Adult and cord blood CD34^+ cells were cultured in SCGM (CellGenix) and X-VIVO 20 (Lonza) medium, respectively, and transduced as previously described (Negre, O. et al., Current gene therapy, 2015, 15, 64-81). Cells were selected 48 hours after transduction, on puromycin hydrochloride (5 μg/mL, Sigma-Aldrich).

CB CD34+ cells = assay: Conditional suicide in vitro: ganciclovir treatment of CB CD34+ cells, erythroid progenitor assay; type: cell-based, human
Procedure: (§2) a.b.c.d. Human cord blood CD34^+ cells were transduced with LTGCPU7 and treated with puromycin and cyclosporine A for 24 hours. Non-transduced (NT) and LTGCPU7-transduced cells were then treated with ganciclovir (GCV) for three days, counted (a) and plated on semi-solid medium for the evaluation of erythroid progenitor cell eradication (b). Selected cells were also injected into 16 NSG mice, half of which were treated with GCV four weeks later (50 mg/kg, 6 days per week, for 2 weeks). Human chimerism (c) and VCN in human CD45^+ cells (d) were determined 2 months later.
(§3) CB CD34+ cells were transduced with LTGCPU7, they were treated with ganciclovir for 72 hours, and plated on methylcellulose. The toxicity of ganciclovir was limited in non-transduced cells (FIG. 8a and FIG. 8b) and the number of transduced erythroid progenitors decreased by a factor of 200 and 1000 in the presence of 1 μM and 5 μM ganciclovir respectively (FIG. 8b). The transduced cells were injected into 16 NSG mice. Four weeks later, eight of the mice received ganciclovir. […] The absence of hCD45+ cells in mice with levels below the limit of sensitivity (<0.01%) was confirmed by the lack of enrichment observed on hCD45 cell sorting.

[1] = system: transduced human hCD45+ cells; assay: Conditional suicide in vivo: ganciclovir treatment of NSG mice carrying transduced human cells; conditions: treated group, 50 mg/kg 6 days per week for 2 weeks, two months later
Procedure: as §2, §3

[2] = system: mobilized peripheral blood (mPB) CD34+ cells; assay: Puromycin selection of transduced mobilized peripheral blood CD34+ cells (mean VCN, progenitor assay); type: cell-based, human
Procedure: as §1
(§4) Vector copy numbers were determined by the comparative Ct method and set at integer values. Colony-forming cells with VCN values between 0.5 and 1.5 were considered to have a VCN of 1; those with VCN values between 1.5 and 2.5 were considered to have a VCN of 2, and so on. LTC-IC cells were analyzed as previously described (Payen, E. et al., Methods in enzymology, 2012, 507, 109-124). The percentage of vector-modified LTC-IC during the readout phase of the assay was determined, by subjecting no more than one clonogenic myeloid colony per well to qPCR-based scoring to ensure that only independent LTC-ICs were analyzed.
The LTGCPU1 vector expressing the puromycin N-acetyl-transferase (PAC) gene under the human PGK promoter is derived from a β-globin LV that has been tested in an approved human trial for the gene therapy of the beta-hemoglobinopathies (Cavazzana Calvo et al., Nature, 2010; 467, 318-322; FIG. 1). LTGCPU1 transduced bone marrow (BM) CD34^+ cells were transferred onto selective medium containing 10 μg/mL puromycin at 24 or 48 hours after transduction. They were incubated for 24 hours, and the frequency of functional hematopoietic progenitor cell subsets was evaluated. The absolute numbers of vector-bearing erythroid progenitors (BFU-Es) were similar in the presence and absence of treatment, regardless of the time allowed for PAC gene expression. However, incubation for two days was required for the myeloid (CFU-GMs) and long-term progenitor cells (LTC-ICs) to acquire full resistance to the antibiotic (FIG. 2a). Mobilized peripheral blood (mPB) CD34^+ cells were also transduced with LTGCPU1 and treated with puromycin. The mean vector copy number (VCN) per cell was determined for pooled cells and compared with the theoretical VCN obtained in optimal conditions (eradication of all non-transduced cells and survival of all vector-bearing cells). In non-selective conditions, the mean VCN was 0.17. Based on the assumption that vector integration obeys Poisson statistics (see below), optimal selection should give rise to 1.08 copies of the vector per cell. Mean VCN was 1.6 when cells were selected 24 hours after transduction, and close to the expected value (1.08) if puromycin treatment began two or three days after transduction (FIG. 2b). […] With this optimized protocol, the proportion of vector-bearing progenitors (myeloid and erythroid) increased from 10-20% to more than 90% following treatment with 5 μg/mL puromycin (FIG. 2c).

[3] = system: bone marrow (BM) CD34+ cells; assay: Puromycin selection of LTGCPU1-transduced bone marrow CD34+ cells (progenitor and LTC-IC assays); type: cell-based, human; conditions: 10 μg/mL puromycin for 24 hours, 24 or 48 hours after transduction
Procedure: as §1
Vector copy numbers were determined by the comparative Ct method and set at integer values. […] LTC-IC cells were analyzed as previously described (Payen, E. et al., Methods in enzymology, 2012, 507, 109-124). The percentage of vector-modified LTC-IC during the readout phase of the assay was determined, by subjecting no more than one clonogenic myeloid colony per well to qPCR-based scoring to ensure that only independent LTC-ICs were analyzed. […]

cord blood CD34+ cells = assay: Selection of LTGCPU7-transduced cord blood CD34+ cells, progenitor assay on methylcellulose; type: cell-based, human
Procedure: as §1, §4

[4] = system: SCID-repopulating cells (SRC); assay: Transplantation of transduced and selected cord blood CD34+ cells into NSG mice (SRC selection); conditions: puromycin alone, three months after transplantation
Description: NOD.Cg-Prkdc^scid Il2rg^tmlWjl/SzJ (NOD-scid IL2rgamma^null abbreviated to NSG) mice were obtained from Charles River Laboratories (Saint Germain sur l'Arbresle, France) and kept in individually ventilated cages supplied with sterile food and autoclaved water. […] Experimental protocols were approved by the ethics committee for animal experimentation of the CEA, under notification number 12-033. Three- to four-month-old female recipients (at least 6 mice per group) were sublethally irradiated with a dose of 2.8 Gy (1 Gy/min) to the whole body (TBI). Then, 10^4 to 10^5 transduced and selected human cells were injected intravenously into the mice on the day after irradiation. […]
For progenitor assays performed immediately after in vitro transduction and selection, 500 to 1000 cells were plated in methylcellulose based-medium already supplemented with human cytokines (H4434, Stemcell Technologies). […] The colonies were counted and collected after incubation for 11-14 days, washed with PBS and stored. […]
Non-viable cells were excluded by Sytox Blue nucleic acid staining (ThermoFisher Scientific) or with 7AAD (eBioscience). Data were acquired with MACSQUANT instrument (Miltenyi) and analyzed with FlowJo software (Tree Star, Inc). […]

SMILES | sensitivity of LTGCPU7-transduced, puromycin-selected cells to ganciclovir (NIH3T3 cells) | toxicity in non-transduced cells (CB CD34+ cells) | factor of decrease of the number of transduced erythroid progenitors (CB CD34+ cells; 5 μM ganciclovir, 72 hours) | mice in which hCD45+ cells were detected [1] | absolute numbers of transduced progenitors, presence versus absence of puromycin ([2]; LTGCPU1-transduced, optimized protocol) | proportion of vector-bearing progenitors (myeloid and erythroid) ([2]; LTGCPU1-transduced, 5 μg/mL puromycin for 24 hours, 48 hours after transduction) | mean VCN per cell, pooled cells ([2]; LTGCPU1-transduced, puromycin 10 μg/mL, selected 24 hours after transduction) | mean VCN per cell, pooled cells ([2]; LTGCPU1-transduced, puromycin treatment began two or three days after transduction) | percentage of transduced progenitor cells in vitro ([2]; mPB cells, after selection with puromycin (data not shown)) | mean VCN in puromycin-treated cells ([2]; mPB cells, in vitro) | absolute numbers of vector-bearing erythroid progenitors (BFU-Es), presence versus absence of treatment [3] | selection of LTGCPU7-transduced cord blood progenitors (cord blood CD34+ cells; 5 μg/mL puromycin for 24 hours) | mean VCN in erythroid progenitors, pooled cells from methylcellulose (cord blood CD34+ cells; 5 μg/mL puromycin, absence of MDR1 inhibitors) | mean VCN and percentage of vector-bearing cells in erythroid progenitors versus untreated (cord blood CD34+ cells; puromycin alone) | mean VCN in hCD45+ cells isolated from mice versus absence of treatment [4]
Nc1nc(O)c2ncn(COC(CO)CO)c2n1 [ganciclovir] | sensitive | limited | 1000 | one of the eight mice | – | – | – | – | – | – | – | – | – | – | –
COc1ccc(C[C@H](N)C(=O)N[C@H]2[C@@H](O)[C@H](n3cnc4c(N(C)C)ncnc43)O[C@@H]2CO)cc1 [puromycin] | – | – | – | – | similar | more than 90% | 1.6 | ~1.08 | 100% | greater than 1 | similar | efficiently selected | ≈ 0.5 | higher | similar
